Data set [1] in a line: KAR-001 Phase I study: xanomeline and trospium plasma pharmacokinetics. The data set is classed as in vivo, human.
Data set [2] in a line: Mutagenic potential of xanomeline synthesis intermediate.
Another data set deals with Alzheimer's disease. The following applies: 26-week study of Alzheimer's disease; cited from earlier work.
In data set [3] the test system is normal healthy volunteers. Also on record: species or system human. The following applies: in vivo. How it is done:
A Phase I, double-blind, randomized multiple-dose pilot study was conducted with xanomeline administered alone compared to xanomeline administered with trospium chloride in normal healthy volunteers. […]

The source of these data is patent publication US20210145804A1, “COMPOSITIONS AND METHODS FOR TREATING DISORDERS AMELIORATED BY MUSCARINIC RECEPTOR ACTIVATION” (Karuna Therapeutics, Inc., priority 2019, published 2021).

The structures appear in SMILES notation. Marks after values point to notes of the source that are not given here.

For the compound `O=C(O[C@H]1C[C@H]2CC[C@@H](C1)[N+]21CCCC1)C(O)(c1ccccc1)c1ccccc1` [trospium alone, trospium chloride], the “Trospium Tmax” value in data set [1] (KAR-001 Day 1, 20 mg trospium BID lead-in, median) was determined as 3.0 h. Moreover, the Tmax in data set [1] (human, in vivo, 20 mg, KAR-001 Day 1, read-out: Trospium median Tmax) is 3 h. In data set [1] (human, in vivo, KAR-001 Day 1, 20 mg trospium BID lead-in, geometric mean), this compound yielded a Cmax of 0.722 ng/mL. In addition, in data set [1] (human, in vivo, KAR-001 Day 1, 20 mg trospium BID lead-in, geometric mean, read-out: Trospium AUC0-inf), the AUC(0-inf) turned out to be 7.79 ng·h/mL. Besides, the AUC in data set [1] (human, in vivo, KAR-001 Day 1, 20 mg trospium BID lead-in, geometric mean, read-out: Trospium AUC0-tau) stood at 5.03 ng·h/mL.
With `CCCCCCOc1nsnc1-c1ccc[n+](C)c1` [Compound V], in data set [2], the Mutagenic potential result is recorded as “negative”.
Regarding `CCCCCCOc1nsnc1C1=CCCN(C)C1` [Xanomeline + placebo, xanomeline], the Dropout rate in the data set with Alzheimer's disease is on record as 56%. In data set [3], the “AE leading to discontinuation (D/C)” value is 2 (6.1) n (%), the “AE leading to discontinuation (D/C): # events” value is given as 2, the “Any SAE” value is on record as 0 (0.0) n (%) and the “Any TEAE: # events” value was 108. In data set [3], the “Any cholinergic TEAEs, number of individual occurrences” value is 64 #; the “Any clinically significant TEAE” value is reported as 5 (15.2) n (%); the “Any clinically significant TEAE: # events” value is listed as 5; the “Any study drug-related TEAE” value is 23 (69.7) n (%). Further, in data set [3], the “Any study drug-related TEAE: # events” value stood at 92; the “Cholinergic adverse events, Any TEAEs: # of events” value is listed as 64; the “Cholinergic adverse events, Any TEAEs: subjects” value was 21 (63.6%) n [%]; the “Cholinergic adverse events, Diarrhea: # of events” value amounted to 8. Further, in data set [3], the “Cholinergic adverse events, Diarrhea: subjects” value was 7 (21.2%) n [%]; the “Cholinergic adverse events, Nausea: # of events” value was determined as 11; the “Cholinergic adverse events, Nausea: subjects” value is 8 (24.2%) n [%]; the “Cholinergic adverse events, Salivation: # of events” value is recorded as 16. In data set [3], the “Cholinergic adverse events, Salivation: subjects” value was 12 (36.4%) n [%]; the “Cholinergic adverse events, Sweating: # of events” value came to 24; the “Cholinergic adverse events, Sweating: subjects” value was 16 (48.5%) n [%]; the “Cholinergic adverse events, Vomiting: # of events” value is listed as 5. Further, in data set [3], the “Cholinergic adverse events, Vomiting: subjects” value was 5 (15.2%) n [%]; the “Diarrhea, incidence” value is on record as 7 (20.6) n (%); the “Diarrhea, number of individual occurrences” value is on record as 8 #; the “Gastrointestinal disorders (cholinergic TEAE), incidence” value is 18 (52.9) n (%). Moreover, in data set [3], the “Gastrointestinal disorders (cholinergic TEAE), number of individual occurrences” value was 40 #; the “Hyperhidrosis, incidence” value is 16 (47.1) n (%); the “Hyperhidrosis, number of individual occurrences” value is 24 #; the “Incidence rate of sweating (hyperhidrosis)” value was determined as 48.5%. In addition, in data set [3], the “Max Severity of TEAE: Mild” value is recorded as 22 (66.7) N/A n (%), the “Max Severity of TEAE: Moderate” value is 5 (15.2) N/A n (%), the “Max Severity of TEAE: Severe” value is 0 (0.0) n (%) and the “Max severity of study drug-related TEAE: Mild” value is 19 (57/6) N/A n (%). Also, in data set [3], the “Max severity of study drug-related TEAE: Moderate” value is reported as 4 (12.1) N/A n (%); the “Max severity of study drug-related TEAE: Severe” value is given as 0 (0.0) N/A n (%); the “Nausea, incidence” value is 8 (23.5) n (%); the “Nausea, number of individual occurrences” value is listed as 11 #. For the same compound, in data set [3], the “Salivary hypersecretion, incidence” value is 12 (35.3) n (%); the “Salivary hypersecretion, number of individual occurrences” value is 16 #; the “Skin and subcutaneous tissue disorders (cholinergic TEAE), incidence” value is listed as 16 (47.1) n (%); the “Skin and subcutaneous tissue disorders (cholinergic TEAE), number of individual occurrences” value is given as 24 #. Besides, in data set [3], the “Study drug related AE leading to D/C” value is listed as 1 (3.0) n (%), the “Study drug related AE leading to D/C: # events” value worked out at 1, the “Subjects reporting at least one cholinergic adverse event” value is on record as 63% and the “Subjects who experienced syncope” value is “Two”. Moreover, in data set [3], the “Subjects with any TEAE” value is 27 (81.8) n (%); the “Subjects with any cholinergic TEAEs, incidence” value is 21 (61.8) n (%); the “Vomiting, incidence” value is listed as 5 (14.7) n (%); the “Vomiting, number of individual occurrences” value is 5 #.

For orientation: Tmax means the time at which the peak concentration occurs. Broadly, the Cmax is the highest concentration seen after dosing.
